This is an account of results in patent US20250250299A1, “MACROCYCLIC IMMUNOMODULATORS” (Bristol-Myers Squibb Company, priority 2022, published 2025).

Where a SMILES comes first, the peptide text is derived from it. Bridges are numbered along the chain shown (N, C = ends). [ ]: non-standard residue; d: D form. The star is where a group is joined. X1 = O=C(O)CCCCCCCCCCCCCCCCC(=O)N[C@@H](CCC(=O)NCCOCCOCCOCCOCCOCCOCCOCCOCCOCCOCCOCCn1cc(C*)nn1)C(=O)O; Bip = N[C@@H](Cc1ccc(-c2ccccc2)cc1)C(=O)O; Phe(3-Me) = Cc1cccc(C[C@H](N)C(=O)O)c1; C12 diacid = O=C(O)CCCCCCCCCCC(=O)*; 4Pal = N[C@@H](Cc1ccncc1)C(=O)O; Cha = N[C@@H](CC1CCCCC1)C(=O)O; Carboxymethyl = O=C(O)C*; NMeA = CN[C@@H](C)C(=O)O; Orn = NCCC[C@H](N)C(=O)O; Dab = NCC[C@H](N)C(=O)O; Dap = NC[C@H](N)C(=O)O; AEEA = NCCOCCOCC(=O)O

In this test the target is T1, human PD-1 (Jurkat-PD-1 cells; binding of PE-labeled human PD-L1-Ig) (Homo sapiens, UniProt Q15116).
T1 construct: expressed in transfected cells; host or cells: Jurkat (Jurkat-PD-1 / Jurkat-hPD-1)
T1 sequence (Q15116 25-288): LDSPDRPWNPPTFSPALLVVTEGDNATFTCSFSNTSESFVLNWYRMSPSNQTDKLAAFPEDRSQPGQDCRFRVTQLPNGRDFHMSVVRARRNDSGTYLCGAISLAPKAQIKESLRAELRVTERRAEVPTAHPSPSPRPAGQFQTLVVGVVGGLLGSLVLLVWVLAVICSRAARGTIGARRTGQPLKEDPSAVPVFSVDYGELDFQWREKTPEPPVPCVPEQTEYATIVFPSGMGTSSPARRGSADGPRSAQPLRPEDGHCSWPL
In words: Jurkat-PD-1 Cell Binding High-Content Screening Assay. The note with it: Jurkat cell line over-expressing human PD-1; compound 2 h at 37° C., then PE-labeled PD-L1-Ig 20 nM final, 1 hour; read-out: Jurkat hPD1 PDL1 IC50.
As a reminder, the IC50 is the concentration needed to halve the response being measured. As to `Cc1cccc(C[C@@H]2NC(=O)[C@H](CC(=O)O)NC(=O)[C@H](Cc3ccc(OCC(=O)O)cc3)NC(=O)[C@H](CN)NC(=O)CSC[C@@H](C(=O)N[C@@H](CCN)C(=O)NCCOCCOCC(N)=O)NC(=O)[C@H]([C@@H](C)O)NC(=O)[C@H](C(C)C)NC(=O)[C@H](CC3CCCCC3)NC(=O)[C@H](CCN)NC(=O)[C@@H](CC(C)C)NC(=O)[C@H](CCCN)NC(=O)[C@H](COCc3cn(CCOCCOCCOCCOCCOCCOCCOCCOCCOCCOCCOCCNC(=O)CC[C@H](NC(=O)CCCCCCCCCCCCCCCCC(=O)O)C(=O)O)nn3)NC(=O)[C@H](Cc3ccc(-c4ccccc4)cc3)NC(=O)[C@H](Cc3ccc(OCC(=O)O)cc3)NC2=O)c1` [Compound 1042] ({CH2CO}-[Dap]Y(Carboxymethyl)D[Phe(3-Me)]Y(Carboxymethyl)[Bip]S(X1)[Orn][dL][Dab][Cha]VTC[Dab][AEEA]-NH2; thioether N-14), the IC50 came out at 220 nM.
As to `Cc1cccc(C[C@@H]2NC(=O)[C@H](CC(=O)O)NC(=O)[C@H](Cc3ccc(OCC(=O)O)cc3)NC(=O)[C@H](CN)NC(=O)CSC[C@@H](C(=O)N[C@@H](CCN)C(=O)NCCOCCOCC(N)=O)NC(=O)[C@H]([C@@H](C)O)NC(=O)[C@H](C(C)C)NC(=O)[C@H](CC3CCCCC3)NC(=O)[C@H](CCN)NC(=O)[C@@H](CC(C)C)NC(=O)[C@H](COCc3cn(CCOCCOCCOCCOCCOCCOCCOCCOCCOCCOCCOCCNC(=O)CC[C@H](NC(=O)CCCCCCCCCCCCCCCCC(=O)O)C(=O)O)nn3)NC(=O)[C@H](Cc3ccc(OCC(=O)O)cc3)NC(=O)[C@H](Cc3ccc(-c4ccccc4)cc3)NC(=O)[C@H](Cc3ccc(OCC(=O)O)cc3)NC2=O)c1` [Compound 1043] ({CH2CO}-[Dap]Y(Carboxymethyl)D[Phe(3-Me)]Y(Carboxymethyl)[Bip]Y(Carboxymethyl)S(X1)[dL][Dab][Cha]VTC[Dab][AEEA]-NH2; thioether N-14), the IC50 was found to be 610 nM.
With `CC(C)C[C@H]1NC(=O)[C@H](C)N(C)C(=O)[C@H](C(C)C)NC(=O)[C@H](Cc2ccc(-c3ccccc3)cc2)NC(=O)[C@H](C(C)C)NC(=O)[C@H](Cc2c[nH]c3ccccc23)NC(=O)[C@H](CC(=O)O)NC(=O)[C@H](Cc2ccncc2)NC(=O)[C@H](Cc2ccc(OCC(=O)O)cc2)NC(=O)CSC[C@@H](C(N)=O)NC(=O)[C@H](CO)NC(=O)[C@H](C(C)C)NC(=O)[C@H](CC2CCCCC2)NC(=O)[C@H](CCCCNC(=O)CCCCCCCCCCC(=O)O)NC1=O` [Compound 1044] ({CH2CO}-Y(Carboxymethyl)[4Pal]DWV[Bip]V[NMeA][dL]K(C12 diacid)[Cha]VSC-NH2; thioether N-14) the figure was 360 nM; with `CC(C)C[C@H]1NC(=O)[C@H](C)N(C)C(=O)[C@H](C(C)C)NC(=O)[C@H](Cc2ccc(-c3ccccc3)cc2)NC(=O)[C@H](C(C)C)NC(=O)[C@H](Cc2c[nH]c3ccccc23)NC(=O)[C@H](CC(=O)O)NC(=O)[C@H](Cc2ccncc2)NC(=O)[C@H](Cc2ccc(OCC(=O)O)cc2)NC(=O)CSC[C@@H](C(N)=O)NC(=O)[C@H](CCCCNC(=O)CCCCCCCCCCC(=O)O)NC(=O)[C@H](C(C)C)NC(=O)[C@H](CC2CCCCC2)NC(=O)[C@H](CC(N)=O)NC1=O` [Compound 1045] ({CH2CO}-Y(Carboxymethyl)[4Pal]DWV[Bip]V[NMeA][dL]N[Cha]VK(C12 diacid)C-NH2; thioether N-14), 180 nM.
